Laboratory results as given in patent EP1689759B1, “METHOD FOR PRODUCING PURE DISODIUM PAMIDRONATE” (Mustafa Nevzat Ilac Sanayii A.S., priority 2003, dated 2005).
Several values for one entry are separate records, joined by “and”; a condition that tells them apart may be missing. Equal values may be shown once.

What was measured:
[1] = from 1 week under the conditions of 24°C, 50 % RH; water contents 24,41 %; cited from earlier work
[2] = Storage stability at normal pressure over 1 week under ICH conditions (water content by KF); format: physicochemical
Procedure: (§1) These investigations were carried out in a HERAEUS vacuum drying oven of a volume of 53 liters, at a relative humidity (RH) of less than 1 %. Investigations of storage stability at normal pressure were carried out over a period of 1 week, in compliance with the internationally accepted standards about storage stability test conditions for pharmaceuticals as defined in ICH (International Conference on Harmonization of Technical Requirements for Registration of Pharmaceuticals for Human Use), at 25°C / 60 % RH for longterm stability condition, 30°C / […] for intermediate term stability condition and 40°C / 75 % RH for accelerated stability condition.
Table 1. Water content (%, KF) of 3 lots of disodium pamidronate after storage for 1 week

[3] = Storage at room temperature at reduced pressure in vacuum drying oven (water content by KF); format: physicochemical; details: for water by KF method: room temperature, reduced pressure (20 millibar), RH less than 1 %
Procedure: as §1

Structure (SMILES): NCCC(O)(P(=O)([O-])O)P(=O)([O-])O.O.O.O.O.O.[Na+].[Na+] [5 hydrates]
- loss of water contents on storage [1]: a part of the water contents (24,41 %) is lost

Structure (SMILES): NCCC(O)(P(=O)([O-])O)P(=O)([O-])O.O.O.O.O.O.[Na+].[Na+] [Lot 0034, disodium pamidronate pentahydrate]
- Water content (%, KF) ([2]; after storage for 1 week at 25°C/60%RH (longterm stability condition), listed as 0034): 24.37%
- Water content (%, KF) ([2]; after storage for 1 week at 30°C/60%RH (intermediate term stability condition), listed as 0034): 24.38%
- Water content (%, KF) ([2]; after storage for 1 week at 40°C/75%RH (accelerated stability condition), listed as 0034): 24.43%
- Water content (%, KF) ([2]; initial, before storage, listed as 0034): 24.55%

Structure (SMILES): NCCC(O)(P(=O)([O-])O)P(=O)([O-])O.O.O.O.O.O.[Na+].[Na+] [Lot 0035, disodium pamidronate pentahydrate]
- Water content (%, KF) ([2]; after storage for 1 week at 25°C/60%RH (longterm stability condition), listed as 0035): 24.40%
- Water content (%, KF) ([2]; after storage for 1 week at 30°C/60%RH (intermediate term stability condition), listed as 0035): 24.39%
- Water content (%, KF) ([2]; after storage for 1 week at 40°C/75%RH (accelerated stability condition), listed as 0035): 24.27%
- Water content (%, KF) ([2]; initial, before storage, listed as 0035): 24.38%

Structure (SMILES): NCCC(O)(P(=O)([O-])O)P(=O)([O-])O.O.O.O.O.O.[Na+].[Na+] [Lot 0036, disodium pamidronate pentahydrate]
- Water content (%, KF) ([2]; after storage for 1 week at 25°C/60%RH (longterm stability condition), listed as 0036): 24.32%
- Water content (%, KF) ([2]; after storage for 1 week at 30°C/60%RH (intermediate term stability condition), listed as 0036): 24.35%
- Water content (%, KF) ([2]; after storage for 1 week at 40°C/75%RH (accelerated stability condition), listed as 0036): 24.39%
- Water content (%, KF) ([2]; initial, before storage, listed as 0036): 24.48%

Structure (SMILES): NCCC(O)(P(=O)([O-])O)P(=O)([O-])O.O.O.O.O.O.[Na+].[Na+] [disodium pamidronate pentahydrate]
- storage stability ([2]; 1 week at 25°C/60 % RH, 30°C/60 % RH and 40°C/75 % RH): stable
- water by KF method ([3]; after 4 hours of storage): 24.7%
- water by KF method ([3]; after 10 hours of storage): 24.4%
- water by KF method ([3]; after 38 hours of storage (determined in triplicate)): 24.35% and 24.38% and 24.32%
- Stability of the product (loss of water) ([3]; stored at room temperature at reduced pressure (20 millibar)): no loss of water
